Results as given in US10640495B2, “Heterocycle derivatives having TrkA inhibitory activity” (Shionogi & Co., Ltd., priority 2015, dated 2020).

Target: human TrkA (Homo sapiens (Human), UniProt P04629)
Experiment: Human TrkA inhibition assay (Test Example 2)
Type: biochemical
Conditions: Table 152, human TrkA inhibition; read-out: IC50_nM
Method in brief: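 Recombinant TrkA (1 nmol/L) was preincubated 15 min at room temperature with compound in HEPES/MgCl2/DTT buffer, then reacted with FL-peptide 27 (1.5 μmol/L) and ATP (500 μmol/L) for 120 min at 37 °C. After EDTA stop, substrate phosphorylation was read by microfluidic mobility shift. IC50 came from logistic regression over 3-fold dilution series.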

Chain of human TrkA (P04629 440-796): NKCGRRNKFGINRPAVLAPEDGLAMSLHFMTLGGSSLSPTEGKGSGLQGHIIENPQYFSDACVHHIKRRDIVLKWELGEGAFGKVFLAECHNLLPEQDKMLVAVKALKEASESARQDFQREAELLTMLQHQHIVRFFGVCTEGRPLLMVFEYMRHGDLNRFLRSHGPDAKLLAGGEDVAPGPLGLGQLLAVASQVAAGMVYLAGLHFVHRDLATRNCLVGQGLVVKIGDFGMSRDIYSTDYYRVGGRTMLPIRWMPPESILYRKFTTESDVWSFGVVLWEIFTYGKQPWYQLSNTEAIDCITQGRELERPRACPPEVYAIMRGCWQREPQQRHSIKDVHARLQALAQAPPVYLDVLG

IC50, < 100 nM:
COCCN1C[C@@H](NC(=O)Nc2c(C)c(C3=CCN(C(C)=O)CC3)nn2-c2ccccc2)[C@H](c2ccnc(F)c2)O1 (racemic) [Compound I-42]

Same assay, conditions: Table 153, human TrkA inhibition; read-out: IC50

IC50, < 100 nM:
COCCN1C[C@@H](NC(=O)Nc2c(C)c(-c3cnc4c(c3)nnn4C)nn2-c2ccccc2)[C@H](c2ccc(F)c(F)c2)O1 (racemic) [Compound I-126]
COCCN1C[C@@H](NC(=O)Nc2c(C)c(C3=CCN(C(=O)OC(C)(C)C)CC3)nn2-c2ccccc2)[C@H](c2cnc(F)c(F)c2)O1 (racemic) [Compound I-46]
CNC(=O)c1cc(-c2nn(-c3ccccc3)c(NC(=O)N[C@@H]3CN(CCOC)O[C@H]3c3ccnc(F)c3)c2C)cn(C)c1=O (racemic) [Compound I-106]
COCCN1C[C@@H](NC(=O)Nc2c(C)c(-c3cnc(C)nc3)nn2-c2ccccc2)[C@H](c2cnc(Cl)s2)O1 (racemic) [Compound I-154]
CNC(=O)c1cc(-c2nn(-c3ccccc3)c(NC(=O)N[C@@H]3CN(CCOC)O[C@H]3c3ccc(F)c(F)c3)c2C)cn(C)c1=O (racemic) [Compound I-147]
CNc1ncc(-c2nn(-c3ccccc3)c(NC(=O)N[C@@H]3CN(CCOC)O[C@H]3c3ccnc(F)c3)c2C)cn1 (racemic) [Compound I-93]
COCCN1C[C@@H](NC(=O)Nc2c(C)c(-c3cnc4c(cnn4C)c3)nn2-c2ccccc2)[C@H](c2cnc(F)c(F)c2)O1 (racemic) [Compound I-67]
COCC[C@@H]1C[C@@H](NC(=O)Nc2c(C)c(C3=CCN(C(=O)CO)CC3)nn2-c2ccccc2)[C@H](c2ccc(F)c(F)c2)O1 (racemic) [Compound I-56]
COCCN1C[C@@H](NC(=O)Nc2c(C)c(-c3cnn(C)c3)nn2-c2ccccc2)[C@H](c2cnc(Cl)s2)O1 (racemic) [Compound I-137]
COCCN1C[C@@H](NC(=O)Nc2c(C)c(-c3cnc4c(c3)c(CO)nn4C)nn2-c2ccccc2)[C@H](c2cnc(F)c(F)c2)O1 (racemic) [Compound I-84]

Same assay, conditions: Table 154, human TrkA inhibition; read-out: IC50

IC50, < 100 nM:
COCCN1C[C@@H](NC(=O)Nc2c(C)c(-c3cnc(C(N)=O)c(F)c3)nn2-c2ccccc2)[C@H](c2ccnc(F)c2)O1 (racemic) [Compound I-255]
COCCN1C[C@@H](NC(=O)Nc2c(C)c(-c3cnc(C(N)=O)c(Cl)c3)nn2-c2ccccc2)[C@H](c2ccnc(F)c2)O1 (racemic) [Compound I-316]
COCC[C@@H]1C[C@@H](NC(=O)Nc2c(C)c(-c3cnc(N(C)C(=O)OC(C)(C)C)nc3)nn2-c2ccccc2)[C@H](c2ccnc(F)c2)O1 [Compound I-289]
COCC[C@@H]1C[C@@H](NC(=O)Nc2c(C)c(-c3ccc(N=S(C)(C)=O)nc3)nn2-c2ccccc2)[C@H](c2ccc(F)c(F)c2)O1 (racemic) [Compound I-185]
COCCN1C[C@@H](NC(=O)Nc2c(C)c(-c3cnc4c(c3)nc(C#N)n4C)nn2-c2ccccc2)[C@H](c2ccc(F)c(F)c2)O1 [Compound I-222]
COCCN1C[C@@H](NC(=O)Nc2c(C)c(-c3cnc(S(C)(=O)=O)nc3)nn2-c2ccccc2)[C@H](c2ccnc(F)c2)O1 (racemic) [Compound I-270]

IC50, 100 to 1000 nM:
COCCN1C[C@H](NC(=O)Nc2c(C)c(-c3cnc(OC)nc3)nn2-c2ccccc2)[C@@H](c2cnc(F)c(F)c2)O1 [Compound I-263]
Cc1c(-c2cnc3c(cnn3C)c2)nn(-c2ccccc2)c1NC(=O)N[C@@H]1CN(Cc2cn[nH]c2)O[C@H]1c1ccc(F)c(F)c1 (racemic) [Compound I-204]
Cc1c(-c2cnc3c(cnn3C)c2)nn(-c2ccccc2)c1NC(=O)N[C@@H]1CN(Cc2ccn[nH]2)O[C@H]1c1ccc(F)c(F)c1 (racemic) [Compound I-203]

Same assay, conditions: Table 155, human TrkA inhibition; read-out: IC50

IC50, < 100 nM:
COCCN1C[C@@H](NC(=O)Nc2c(C)c(-c3cnc4c(c3)CCC4O)nn2-c2ccccc2)[C@H](c2ccnc(F)c2)O1 (stereo partly shown) [Compound I-353]
COCCN1C[C@@H](NC(=O)Nc2c(C)c(-c3cnc4c(c3)c(CO)nn4C)nn2-c2ccccc2)[C@H](c2ccnc(F)c2)O1 (racemic) [Compound I-434]
COCCN1C[C@@H](NC(=O)Nc2c(C)c(-c3cnc(C(C)(C)O)c(F)c3)nn2-c2ccccc2)[C@H](c2ccnc(F)c2)O1 (racemic) [Compound I-459]
COCCN1C[C@@H](NC(=O)Nc2c(C)c(OCc3ccccn3)nn2-c2ccccc2)[C@H](c2ccnc(F)c2)O1 (racemic) [Compound I-454]
COCCN1C[C@@H](NC(=O)Nc2c(C)c(-c3cccc(N(C)C)c3)nn2-c2ccccc2)[C@H](c2ccc(F)c(F)c2)O1 [Compound I-450]
COCCN1C[C@@H](NC(=O)Nc2c(C)c(-c3cccnc3)nn2-c2ccccc2)[C@H](c2ccc(F)c(F)c2)O1 [Compound I-449]
COCCN1C[C@@H](NC(=O)Nc2c(C)c(-c3cnc(Br)nc3)nn2-c2ccccc2)[C@H](c2ccnc(F)c2)O1 (racemic) [Compound I-433]
COCCN1C[C@@H](NC(=O)Nc2c(C)c(-c3ccc(C)nc3)nn2-c2ccccc2)[C@H](c2ccnc(F)c2)O1 (racemic) [Compound I-327]
COCCN1C[C@@H](NC(=O)Nc2c(C)c(-c3ccc4nc(CO)cn4c3)nn2-c2ccccc2)[C@H](c2ccc(F)c(F)c2)O1 [Compound I-451]
COCCN1C[C@@H](NC(=O)Nc2c(C)c(-c3cc(C(=O)NC(C)(C)C)c(=O)n(C)c3)nn2-c2ccccc2)[C@H](c2ccnc(F)c2)O1 (racemic) [Compound I-389]

Same assay, conditions: Table 156, human TrkA inhibition; read-out: IC50

IC50, < 100 nM:
COCCN1C[C@@H](NC(=O)Nc2c(C)c(C(F)(F)F)nn2-c2ccccc2)[C@H](c2ccnc(F)c2)O1 (racemic) [Compound I-534]
COCCN1C[C@@H](NC(=O)Nc2c(C)c(-c3ccc(OC)cc3)nn2-c2ccccc2)[C@H](c2ccnc(F)c2)O1 (racemic) [Compound I-554]

Same assay, conditions: Table 157, human TrkA inhibition; read-out: IC50

IC50, > 1000 nM:
Cc1c(-c2cnc3c(cnn3C)c2)nn(-c2ccccc2)c1NC(=O)N[C@@H]1CN(CCC(F)(F)F)O[C@H]1c1ccc(F)c(F)c1 (racemic) [Compound I-622]

IC50, < 100 nM:
COCCN1C[C@@H](NC(=O)Nc2c(C)c(OCC3COC(C)(C)O3)nn2-c2ccccc2)[C@H](c2ccc(F)c(F)c2)O1 (stereo partly shown) [Compound I-614]
COCCN1C[C@@H](NC(=O)Nc2c(C)c(-c3cnc(N4CCN(C)[C@H](C)C4)nc3)nn2-c2ccccc2)[C@H](c2ccnc(F)c2)O1 [Compound I-592]
COCCN1C[C@@H](NC(=O)Nc2c(C)c(-c3ccnc(CO)c3)nn2-c2ccccc2)[C@H](c2ccc(F)c(F)c2)O1 [Compound I-617]
CCN1C[C@@H](NC(=O)Nc2c(C)c(OCC(=O)N(C)C)nn2-c2ccccc2)[C@H](c2ccc(F)c(F)c2)O1 (racemic) [Compound I-647]
COCCN1C[C@@H](NC(=O)Nc2c(C)c(-c3cnc(N(C)CCCN(C)C)nc3)nn2-c2ccccc2)[C@H](c2ccnc(F)c2)O1 (racemic) [Compound I-589]

Same assay, conditions: human TrkA 1 nmol/L, ATP 500 μmol/L, 120 min at 37° C.; read-out: IC50 values (TrkA phosphorylation inhibition)

IC50, 4 nM:
CNC(=O)c1cc(-c2nn(-c3ccccc3)c(NC(=O)N[C@@H]3CN(C)O[C@H]3c3ccc(F)c(F)c3)c2C)cn(C)c1=O (racemic) [Compound I-193]

IC50, 2.9 nM:
COCC[C@@H]1C[C@@H](NC(=O)Nc2c(C)c(-c3cnn(C)c3)nn2-c2ccccc2)[C@H](c2ccc(F)c(F)c2)O1 [Compound I-25]
